Measurements: US11793849B2, “Method of Chinese herbal medicine extract used for treating multiple diseases caused by drug resistant bacteria infection” (priority 2016, dated 2023)
Values after ≈ are worked out from the molar mass of the structure shown. Read-outs that look alike come from different tables or passages of the source.

Tested on: MDRAB
Experiment: MIC determination, microdilution broth method
Type: cell-based, Acinetobacter baumannii
Conditions: Acinetobacter baumannii, read-out: MIC
Procedure: Determination methods of a Minimal Inhibitory Concentration (MIC) and a Minimum Bactericidal Concentration (MBC) of a test product: the MIC and the MBC of the Pithecellobium clypearia Benth water or ethanol extract to the MDRAB are determined by a microdilution broth method. And it is operated by referring to the microdilution broth method recommended by National Committee for Clinical Laboratory Standards (NCCLS).

MIC (strain A1, EA=60% ethanol extract): 1 µg/mL (≈ 3.34 µM) | MIC (strain A1, EA=95% ethanol extract): 1 µg/mL (≈ 3.34 µM) | MIC (strain A1, single use, EA=10% ethanol extract): 1 µg/mL (≈ 3.34 µM) | MIC (strain A1, single use, EA=water extract): 1 µg/mL (≈ 3.34 µM) | MIC (strain A2, EA=60% ethanol extract): 32 µg/mL (≈ 107 µM) | MIC (strain A2, EA=95% ethanol extract): 32 µg/mL (≈ 107 µM) | MIC (strain A2, single use, EA=10% ethanol extract): 32 µg/mL (≈ 107 µM) | MIC (strain A2, single use, EA=water extract): 32 µg/mL (≈ 107 µM) | MIC (strain A3, EA=60% ethanol extract): 32 µg/mL (≈ 107 µM) | MIC (strain A3, EA=95% ethanol extract): 32 µg/mL (≈ 107 µM) | MIC (strain A3, single use, EA=10% ethanol extract): 32 µg/mL (≈ 107 µM) | MIC (strain A3, single use, EA=water extract): 32 µg/mL (≈ 107 µM) | MIC (strain A4, EA=60% ethanol extract): 8 µg/mL (≈ 26.7 µM) | MIC (strain A4, EA=95% ethanol extract): 8 µg/mL (≈ 26.7 µM) | MIC (strain A4, single use, EA=10% ethanol extract): 8 µg/mL (≈ 26.7 µM) | MIC (strain A4, single use, EA=water extract): 8 µg/mL (≈ 26.7 µM) | MIC (strain A5, EA=60% ethanol extract): 32 µg/mL (≈ 107 µM) | MIC (strain A5, EA=95% ethanol extract): 32 µg/mL (≈ 107 µM) | MIC (strain A5, single use, EA=10% ethanol extract): 32 µg/mL (≈ 107 µM) | MIC (strain A5, single use, EA=water extract): 32 µg/mL (≈ 107 µM) | MIC (strain A6, EA=60% ethanol extract): 32 µg/mL (≈ 107 µM) | MIC (strain A6, EA=95% ethanol extract): 32 µg/mL (≈ 107 µM) | MIC (strain A6, single use, EA=10% ethanol extract): 32 µg/mL (≈ 107 µM) | MIC (strain A6, single use, EA=water extract): 32 µg/mL (≈ 107 µM) | MIC (strain A7, EA=60% ethanol extract): 32 µg/mL (≈ 107 µM) | MIC (strain A7, EA=95% ethanol extract): 32 µg/mL (≈ 107 µM) | MIC (strain A7, single use, EA=10% ethanol extract): 32 µg/mL (≈ 107 µM) | MIC (strain A7, single use, EA=water extract): 32 µg/mL (≈ 107 µM) | MIC (strain A8, EA=60% ethanol extract): 32 µg/mL (≈ 107 µM) | MIC (strain A8, EA=95% ethanol extract): 32 µg/mL (≈ 107 µM) | MIC (strain A8, single use, EA=10% ethanol extract): 32 µg/mL (≈ 107 µM) | MIC (strain A8, single use, EA=water extract): 32 µg/mL (≈ 107 µM) | MIC (strain A9, EA=60% ethanol extract): 32 µg/mL (≈ 107 µM) | MIC (strain A9, EA=95% ethanol extract): 32 µg/mL (≈ 107 µM) | MIC (strain A9, single use, EA=10% ethanol extract): 32 µg/mL (≈ 107 µM) | MIC (strain A9, single use, EA=water extract): 32 µg/mL (≈ 107 µM) | MIC (strain A10, EA=60% ethanol extract): 16 µg/mL (≈ 53.4 µM) | MIC (strain A10, EA=95% ethanol extract): 16 µg/mL (≈ 53.4 µM) | MIC (strain A10, single use, EA=10% ethanol extract): 16 µg/mL (≈ 53.4 µM) | MIC (strain A10, single use, EA=water extract): 16 µg/mL (≈ 53.4 µM) | MIC (strain A11, EA=60% ethanol extract): 32 µg/mL (≈ 107 µM) | MIC (strain A11, EA=95% ethanol extract): 32 µg/mL (≈ 107 µM) | MIC (strain A11, single use, EA=10% ethanol extract): 32 µg/mL (≈ 107 µM) | MIC (strain A11, single use, EA=water extract): 32 µg/mL (≈ 107 µM) | MIC (strain A12, EA=60% ethanol extract): 32 µg/mL (≈ 107 µM) | MIC (strain A12, EA=95% ethanol extract): 32 µg/mL (≈ 107 µM) | MIC (strain A12, single use, EA=10% ethanol extract): 32 µg/mL (≈ 107 µM) | MIC (strain A12, single use, EA=water extract): 32 µg/mL (≈ 107 µM) | MIC (strain A13, EA=60% ethanol extract): 32 µg/mL (≈ 107 µM) | MIC (strain A13, EA=95% ethanol extract): 32 µg/mL (≈ 107 µM) | MIC (strain A13, single use, EA=10% ethanol extract): 32 µg/mL (≈ 107 µM) | MIC (strain A13, single use, EA=water extract): 32 µg/mL (≈ 107 µM) | MIC (strain A14, EA=60% ethanol extract): 32 µg/mL (≈ 107 µM) | MIC (strain A14, EA=95% ethanol extract): 32 µg/mL (≈ 107 µM) | MIC (strain A14, single use, EA=10% ethanol extract): 32 µg/mL (≈ 107 µM) | MIC (strain A14, single use, EA=water extract): 32 µg/mL (≈ 107 µM) | MIC (strain A15, EA=60% ethanol extract): 32 µg/mL (≈ 107 µM) | MIC (strain A15, EA=95% ethanol extract): 32 µg/mL (≈ 107 µM) | MIC (strain A15, single use, EA=10% ethanol extract): 32 µg/mL (≈ 107 µM) | MIC (strain A15, single use, EA=water extract): 32 µg/mL (≈ 107 µM) | MIC (strain A16, EA=60% ethanol extract): 32 µg/mL (≈ 107 µM) | MIC (strain A16, EA=95% ethanol extract): 32 µg/mL (≈ 107 µM) | MIC (strain A16, single use, EA=10% ethanol extract): 32 µg/mL (≈ 107 µM) | MIC (strain A16, single use, EA=water extract): 32 µg/mL (≈ 107 µM) | MIC (strain A17, EA=60% ethanol extract): 16 µg/mL (≈ 53.4 µM) | MIC (strain A17, EA=95% ethanol extract): 16 µg/mL (≈ 53.4 µM) | MIC (strain A17, single use, EA=10% ethanol extract): 16 µg/mL (≈ 53.4 µM) | MIC (strain A17, single use, EA=water extract): 16 µg/mL (≈ 53.4 µM) | MIC (strain A18, EA=60% ethanol extract): 32 µg/mL (≈ 107 µM) | MIC (strain A18, EA=95% ethanol extract): 32 µg/mL (≈ 107 µM) | MIC (strain A18, single use, EA=10% ethanol extract): 32 µg/mL (≈ 107 µM) | MIC (strain A18, single use, EA=water extract): 32 µg/mL (≈ 107 µM) | MIC (strain A19, EA=60% ethanol extract): 32 µg/mL (≈ 107 µM) | MIC (strain A19, EA=95% ethanol extract): 32 µg/mL (≈ 107 µM)
Structure (SMILES): C[C@@H](O)[C@H]1C(=O)N2C(C(=O)O)=C(SCCN=CN)C[C@H]12 [IMP, imipenem]
